Data reported in PMC11802874, “The hypolipidemic effect of MI-883, the combined CAR agonist/ PXR antagonist, in diet-induced hypercholesterolemia model” (Nature Communications, 2025).
Several values for one entry are separate records, joined by “and”; a condition that tells them apart may be missing. Equal values may be shown once.

Assays:
human CAR variant 3 = target: T1, human CAR variant 3 (Homo sapiens, UniProt Q14994, DEL233-236); assay: CAR3 luciferase reporter assay (CYP2B6-luc) in HepG2 cells; assay type: cell-based
T1 construct: host or cells: HepG2
T1 sequence (Q14994 with tags, fused parts or gaps isoform Q14994-8 DEL233-236): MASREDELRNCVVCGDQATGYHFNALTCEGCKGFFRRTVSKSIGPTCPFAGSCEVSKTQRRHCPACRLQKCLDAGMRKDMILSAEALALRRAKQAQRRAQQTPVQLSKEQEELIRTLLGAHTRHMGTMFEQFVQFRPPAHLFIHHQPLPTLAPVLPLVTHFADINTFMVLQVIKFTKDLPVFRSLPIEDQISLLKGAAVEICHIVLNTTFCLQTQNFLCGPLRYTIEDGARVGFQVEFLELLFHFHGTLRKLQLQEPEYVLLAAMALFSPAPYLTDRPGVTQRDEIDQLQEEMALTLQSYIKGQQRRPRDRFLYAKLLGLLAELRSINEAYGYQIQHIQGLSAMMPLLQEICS
T1 sequence (P19793 1-462 partner): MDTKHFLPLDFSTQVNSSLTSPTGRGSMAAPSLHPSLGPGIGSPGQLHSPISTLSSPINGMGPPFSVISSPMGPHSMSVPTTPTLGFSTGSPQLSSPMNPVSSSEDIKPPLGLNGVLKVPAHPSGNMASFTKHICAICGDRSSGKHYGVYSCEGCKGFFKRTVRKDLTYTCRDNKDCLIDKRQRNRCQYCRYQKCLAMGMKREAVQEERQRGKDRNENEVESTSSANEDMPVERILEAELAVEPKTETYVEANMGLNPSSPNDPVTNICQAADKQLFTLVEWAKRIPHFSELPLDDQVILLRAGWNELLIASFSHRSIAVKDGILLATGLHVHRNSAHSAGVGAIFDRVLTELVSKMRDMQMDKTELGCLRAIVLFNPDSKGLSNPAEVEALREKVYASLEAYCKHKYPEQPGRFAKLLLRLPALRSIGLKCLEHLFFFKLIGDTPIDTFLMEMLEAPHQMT
Protocol: CAR3 luciferase reporter assay (with CYP2B6-luc) was performed in human hepatocellular carcinoma HepG2 cells as we described[19] For the CAR3 assay (Fig. 1d), a CYP2B6-luc reporter plasmid (originally entitled B-1.6k/PB/XREM) was kindly donated by Dr. Hongbing Wang (University of Maryland School of Pharmacy, Baltimore, MD, USA). All expression vectors are described in Supplementary, Chapter 4).
Cells were treated for 24 h with MI-883 in a range of concentration from 0.1 nM to 30 µM (n = 3). The half maximal effective concentration (EC50) to activate CAR or inhibit PXR (IC50) in the assays was calculated from at least eight points of the dose-response curves using the GraphPad Prism software.

FXR = FXR (Homo sapiens, UniProt Q96RI1); assay: Luciferase reporter gene assay FXR, HepG2
Chain of FXR (Q96RI1 whole entry): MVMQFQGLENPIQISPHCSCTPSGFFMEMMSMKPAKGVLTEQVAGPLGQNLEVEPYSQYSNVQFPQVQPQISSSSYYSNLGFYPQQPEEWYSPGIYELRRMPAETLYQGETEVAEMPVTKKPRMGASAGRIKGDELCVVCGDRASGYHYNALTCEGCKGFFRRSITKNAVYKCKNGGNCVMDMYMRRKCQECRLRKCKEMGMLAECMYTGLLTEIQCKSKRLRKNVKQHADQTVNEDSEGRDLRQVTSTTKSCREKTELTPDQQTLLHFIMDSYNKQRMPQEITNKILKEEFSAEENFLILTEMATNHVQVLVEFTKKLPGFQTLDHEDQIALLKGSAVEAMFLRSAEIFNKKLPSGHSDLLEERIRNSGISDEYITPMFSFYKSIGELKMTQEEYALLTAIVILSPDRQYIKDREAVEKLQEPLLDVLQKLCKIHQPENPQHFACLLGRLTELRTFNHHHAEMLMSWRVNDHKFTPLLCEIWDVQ
Description: Gal4-LBD constructs of tested nuclear receptors have been used together with pGL4.31[luc2P/GAL4UAS/Hygro] luciferase reporter construct and pRL-TK Renilla expression vector (both from Promega, Hercules, USA) in HepG2 cells transfected with Lipofectamine 2000 or 3000 reagents. For GRα and FXR receptors, full-length expression vectors have been used with pGRE-luc or pFXRE-luc luciferase constructs. For the aryl hydrocarbon receptor (AhR), p1A1-luc construct was used with only pRL-TK vector for transfection normalization. A dual reporter assay (Promega, Hercules, USA) was used to analyze both firefly and Renilla luciferase activities.
Gal4-LBD constructs of tested nuclear receptors have been used together with pGL5-luc luciferase reporter construct and pRL-TK Renilla expression vector in HepG2 cells transfected with Lipofectamine 2000 or 3000 reagents. For GRα and FXR receptors, full-length expression vectors have been used with pGRE-luc or pFXRE-luc luciferase constructs. For the aryl hydrocarbon receptor (AhR), p1A1-luc construct was used with only pRL-TK vector for transfection normalization. […] Bars represent means±S.D. (n=3).

HepaRG cells = assay: RT-qPCR mRNA expression in differentiated HepaRG cells
Description: HepaRG cells from Biopredic (Rennes, France) were cultivated and differentiated on the 12-well plates. […] Several batches of HepaRG KO CAR (CAR Knockout HepaRG™ Cells, MTOX1012-1VL, RRID:CVCL_B6AA) and PXR Knockout HepaRG™ Cells, MTOX1011-1VL, RRID:CVCL_B6AS) cells have been obtained from Sigma-Aldrich/Merck (Darmstadt, Germany) and cultivated according to the provider’s protocols. […] Experiments with HepaRG KO PXR and HepaRG KO CAR cells have been performed in duplicates at least in two independent experiments.
RT-qPCR was used to examine gene expression in 2D and 3D PHH, HepaRG cells, or in mouse liver or intestine (ileum) samples as we have described before[60]–[62].
All qRT-qPCR experiments including Trizol reagent (Life Technologies) total RNA isolation, reverse-transcription using a random hexaprimer, and the MMLV Reverse Transcriptase Kit (ThermoFisher Scientific) we have described before^19. qPCR was performed using TaqMan Fast Advanced Master Mix with TaqMan probes (ThermoFisher Scientific). […] The delta-delta method was used for gene expression quantification normalized to at least two reference genes. Three technical replicates were used for each reaction considering the MIQE guidelines. Data are presented as fold induction to vehicle-treated cells/animals.

SMILES: NC(=O)c1cc(Cn2cc(-c3c(-c4ccc(Cl)cc4)nc4cc(F)ccn34)nn2)ccc1Cl [MI-883, 2-chloro-5-((4-(2-(4-chlorophenyl)-7-fluoroimidazo[1,2-a]pyridin-3-yl)-1H-1,2,3-triazol-1-yl)methyl)benzamide]
- CAR3 variant activation (Fig. 1d), replicates (human CAR variant 3; concentration 0.01 (unit not given), HepG2, 24 h): 1
- CAR3 variant activation (Fig. 1d), replicates (human CAR variant 3; concentration 0.1 (unit not given)): 1.35 and 1.4 and 2.3
- CAR3 variant activation (Fig. 1d), replicates (human CAR variant 3; concentration 1 (unit not given)): 4.55 and 1.6 and 1.1
- CAR3 variant activation (Fig. 1d), replicates (human CAR variant 3; concentration 10 (unit not given)): 4.3 and 13.5 and 6.2
- CAR3 variant activation (Fig. 1d), replicates (human CAR variant 3; concentration 30 (unit not given)): 10.05 and 10.1 and 9.78
- NRs assays: FXR (relative to ctrl, replicates) (FXR): 0.85 and 0.88 and 1.01
- INSIG1 mRNA in HepaRG cells (HepaRG cells): significantly upregulated
- LDLR mRNA in HepaRG cells (HepaRG cells): significant PXR-dependent upregulation
- SREBF1 mRNA expression in HepaRG / KO cells (HepaRG cells): CAR-dependent downregulation
- SREBF2 mRNA expression in HepaRG cells (HepaRG cells): no significant effect
- HMGCR expression relative to control (replicates) (HepaRG cells; MI-883 1 μM): 0.8473 and 0.6697 and 1.095 and 1.161 and 1.262 and 0.6816
- HMGCS2 expression relative to control (replicates) (HepaRG cells; MI-883 1 μM): 0.9842 and 0.7188 and 1.1212 and 1.322
- PCSK9 expression relative to control (replicates) (HepaRG cells; MI-883 1 μM): 0.9984 and 0.8995 and 1.064 and 1.124
- HMGCR expression relative to control (replicates) (HepaRG cells; MI-883 1 μM + Rif (5 μM)): 1.453 and 0.9465 and 0.9544 and 1.191 and 1.542 and 0.8007
- HMGCS2 expression relative to control (replicates) (HepaRG cells; MI-883 1 μM + Rif (5 μM)): 0.681 and 1.013 and 0.6433 and 0.4816
- PCSK9 expression relative to control (replicates) (HepaRG cells; MI-883 1 μM + Rif (5 μM)): 0.8085 and 0.8006 and 1.133 and 0.9198
- HMGCR expression relative to control (replicates) (HepaRG cells; MI-883 5 μM): 1.295 and 1.166 and 1.377 and 1.27 and 0.8404
- HMGCS2 expression relative to control (replicates) (HepaRG cells; MI-883 5 μM): 0.5911 and 1.022
- PCSK9 expression relative to control (replicates) (HepaRG cells; MI-883 5 μM): 0.6066 and 1.012
- HMGCR expression relative to control (replicates) (HepaRG cells; MI-883 5 μM + Rif (5 μM)): 1.005 and 1.538 and 1.592 and 1.152 and 1.312
- HMGCS2 expression relative to control (replicates) (HepaRG cells; MI-883 5 μM + Rif (5 μM)): 0.8846 and 0.5305
- PCSK9 expression relative to control (replicates) (HepaRG cells; MI-883 5 μM + Rif (5 μM)): 1.035 and 0.636
- HMGCR expression relative to control (replicates) (HepaRG cells; MI-883 10 μM): 1.683 and 0.9974 and 1.042 and 1.481
- HMGCS2 expression relative to control (replicates) (HepaRG cells; MI-883 10 μM): 0.4009 and 0.6268 and 0.831 and 0.8846
- PCSK9 expression relative to control (replicates) (HepaRG cells; MI-883 10 μM): 0.6175 and 0.9465 and 1.014 and 0.9985
- HMGCR expression relative to control (replicates) (HepaRG cells; MI-883 10 μM + Rif (5 μM)): 1.336 and 1.4868 and 1.027 and 1.993
- HMGCS2 expression relative to control (replicates) (HepaRG cells; MI-883 10 μM + Rif (5 μM)): 0.9594 and 1.125 and 0.477 and 0.8873
- PCSK9 expression relative to control (replicates) (HepaRG cells; MI-883 10 μM + Rif (5 μM)): 1.314 and 0.9884 and 1.015 and 0.8211
- HMGCR expression relative to control (replicates) (HepaRG cells; MI-883 20 μM): 1.186 and 1.442 and 1.1738
- HMGCS2 expression relative to control (replicates) (HepaRG cells; MI-883 20 μM): 0.7901 and 0.8336 and 1.102
- PCSK9 expression relative to control (replicates) (HepaRG cells; MI-883 20 μM): 0.9308 and 1.156 and 1.11
- HMGCR expression relative to control (replicates) (HepaRG cells; MI-883 20 μM + Rif (5 μM)): 0.8382 and 1.516 and 1.756
- HMGCS2 expression relative to control (replicates) (HepaRG cells; MI-883 20 μM + Rif (5 μM)): 1.0412 and 1.1415 and 0.9223
- PCSK9 expression relative to control (replicates) (HepaRG cells; MI-883 20 μM + Rif (5 μM)): 1.334 and 1.4007 and 1.046
- CYP7A1 mRNA fold (Fig. 3f,g sheet), replicates (HepaRG cells; MI-883 1): 0.5746 and 0.6713 and 0.8972 and 0.7445
- INSIG1 mRNA fold (Fig. 3f,g sheet), replicates (HepaRG cells; MI-883 1): 1.005 (2×) and 0.8339
- LDLR mRNA fold (Fig. 3f,g sheet), replicates (HepaRG cells; MI-883 1): 1.161 and 1.262 and 0.9041 and 0.8572
- SREBF1 mRNA fold (Fig. 3f,g sheet), replicates (HepaRG cells; MI-883 1): 0.7942 and 0.8996 and 0.7218
